In patent US8476036B2, “Nonluminogenic assay for living cells” (Promega Corporation, priority 2004, dated 2013):
Peptide text beside a SMILES is read from it. * marks the point of attachment. X1 = O=C(O)C1CSC(c2nc3ccc(N*)cc3s2)=N1; Cbz = O=C(OCc1ccccc1)*

What was measured:
Format in all cases: cell-based
HL-60 or Jurkat [1] = experiment: Protease retention substrate selectivity, untreated viable cells; parameters: key: None denotes no statistical activity above control population.; (+) to (+++++) denotes the range of activity above control population from modest to robust; (+) to (+++++) denotes the range of activity above control population from modest to robust; (+) to (+++++) denotes the range of activity above control population from modest to robust; (+) to (+++++) denotes the range of activity above control population from modest to robust; (+) to (+++++) denotes the range of activity above control population from modest to robust; conditions: substrate cleavage activity above control in untreated viable cells; 15-30 minutes at 37° C.
Excerpt: (§1) Ala-Ala-Phe-AMC was obtained from Promega. Z-Leu-Leu-Val-Tyr-aminoluciferin (LLVY corresponds to SEQ ID NO:18), Z-Leu-Arg-aminoluciferin, Z-Phe-Arg-aminoluciferin, Ala-Ala-Phe-aminoluciferin, (Ala-Ala-Phe)2-R110, and (Gly-Phe)2-R110 were synthesized by Promega Biosciences. Suc-Ala-Ala-Phe-AMC, H-Phe-AMC, H-Tyr-AMC, Glutyl-Ala-Ala-Phe-AMC (EMF corresponds to SEQ ID NO:32), H-Gly-Phe-AMC, Z-Gly-Ala-Met-AMC, Suc-Leu-Leu-Val-Tyr-AMC (LLVY corresponds to SEQ ID NO:18), D-Ala-Leu-Lys-AMC, H-Gly-Ala-AMC, H-Gly-Gly-AMC, Suc-Ala-Ala-Phe-AMC, Z-Arg-Leu-Arg-Gly-Gly-AMC (RLRGG corresponds to SEQ ID NO:29), Z-Leu-Arg-Gly-Gly-AMC (LRGG corresponds to SEQ ID NO:30) and Ac-Ala-Ala-Tyr-AMC were sourced from Bachem. Gly-Phe-AFC, Pro-Phe-Arg-AMC, Gly-Gly-Leu-AMC, and Ser-Tyr-AFC were obtained from Calbiochem. Z-Phe-Arg-AMC and Suc-Arg-Pro-Phe-His-Leu-Leu-Val-Tyr-AMC (RPHLLVY corresponds to SEQ ID NO:31) were purchased from Sigma.
(§2) All substrates were solubilized in DMSO from 10 to 100 mM depending upon inherent solubility. Fluorescent substrates were diluted to 100 μM to 1 mM in 10 mM Hepes, pH 7.5 or matched cell culture medium with 10% serum and added in 1/10th volumes to lysed (freeze fractured, sonicated, or detergent) or untreated viable cells in white-walled, clear bottomed 96-well plates. HL-60 or Jurkat were used in the experimentation interchangeably because of their easily manipulated suspension phenotype. Plates were incubated for 15-30 minutes at 37° C. prior to measuring fluorescence by the CYTOFLUOR® II.
(§3) Luminescent substrates were added to a luciferin detection cake (Promega V859A) resuspended in 2 ml 10 mM Hepes, pH 7.5 to 500 μM. ⅕^th volume of the proluminescent reaction mixes were added to lysed (freeze fractured, sonicated, or detergent) or untreated viable cells in white-walled, clear bottomed 96-well plates. Again, HL-60 or Jurkat were used in the experimentation interchangeably. Plates were incubated at 37° C. in a MeCour' circulating heat block controlled by a Caron 2050W exchange unit. Luminescence was measured between 15 and 30 minutes (signal steady state).
(§4) A broad variety of proteolytic substrates were examined in an effort to characterize potential substrate preferences for protease release or retention in compromised or viable cells (see Table 4). […] Non-blocked substrates (H- and the like) were examined to include the contribution of aminopeptidase activities. From this panel, at least three proteolytic profiles emerged: an aminopeptidase-like activity preferring unblocked Ala-Ala-Phe tripeptide, a proteosomal (chymotrypsin-like) activity measured by release of blocked Leu-Leu-Val-Tyr (SEQ ID NO:18) peptides, and an exceedingly labile activity by Gly-Phe, Gly-Ala, Phe-, Tyr- or Gly-Gly-Leu substrates. The latter activities were only measurable in viable, intact cells. Of further significance is that several fluorophores or proluminescent labels can be used to detect these activities, ultimately allowing for enhanced downstream multiplexing flexibility.

HL-60 or Jurkat [2] = experiment: Protease release substrate selectivity, lysed (freeze fractured, sonicated, or detergent) cells; parameters: key: None denotes no statistical activity above control population.; (+) to (+++++) denotes the range of activity above control population from modest to robust; (+) to (+++++) denotes the range of activity above control population from modest to robust; (+) to (+++++) denotes the range of activity above control population from modest to robust; (+) to (+++++) denotes the range of activity above control population from modest to robust; (+) to (+++++) denotes the range of activity above control population from modest to robust; conditions: substrate cleavage activity above control in lysed cells; 15-30 minutes at 37° C.
Excerpt: as §1, §2, §3, §4

Jurkat cells = experiment: Protease retention assay formats with different peptide sequences and reporters; conditions: viable versus lysed cells
Procedure: Actively doubling Jurkat cells were serially diluted from 37,500 cells/well in RPMI 1640+10% FBS in a white-walled, clear bottomed 96 well plate in 100 μl volumes. The cells in half of the plate were lysed with the addition of Triton X to 0.2% final. The other half of the plate wells received a matched volume (5 μl) of water vehicle. Tyr-AMC, Phe-AMC and Gly-Phe-AFC were all rehydrated in DMSO to 100 mM then diluted in RPMI 1640 to 1 mM. 1/10th volume of diluted substrates were added to the wells, mixed briefly by orbital shaking then incubated at 37° C. in 5% CO2 for up to 1.5 hours. Resulting fluorescence was measured at Ex. 360 Em. 460 and Ex. 405 and Em. 500 at 30 and 90 minutes.

HL-60 cells = experiment: Luminescent protease release assay with different enzyme targets; conditions: HL-60 with or without sonication, 15 minutes at 37° C.
Procedure: Actively doubling HL-60 cells were adjusted to 100,000 cells/ml and split into two aliquots. One aliquot was sonicated using a microtip MISONIXTM™ 3000 with 30% power for three 5 second pulses. The other aliquot was held at 37° C. The cell suspension and lysates were then two-fold serially diluted in RPMI 1640 +10% FBS in 100 μl volumes. Medium only served as the no cell control. A luciferin detection reagent cake (Promega V859A) was resuspended with 2.0 ml of 10 mM Hepes, pH 7.5. The luciferin detection reagent was then divided and made 1 mM with either Z-Leu-Leu-Val-Tyr-aminoluciferin (LLVY corresponds to SEQ ID NO:18) or Ala-Ala-Phe-aminoluciferin. Each reagent was added to independent replicates of the plate in 1/10th volumes and allowed to incubate for 15 minutes at 37° C. in the Me'Cour thermal jacketed water bath holder before luminescence measurement using the BMG FLUOstar Optima.

SK-MEL-28 cells = experiment: Live cell protease retention multiplexed with caspase 3/7 activity, SK-MEL-28; conditions: SK-MEL-28, serial dilutions, 5 hours
Procedure: (§5) SK-MEL-28 or ACHN cells were seeded into white-walled, clear bottomed 96 well plates at a density of 10,000 cells per well in 100 μl volumes and allowed to attach at 37° C. in 5% CO2 for a period of 2 hours. After attachment, 50 μl of medium was carefully removed and replaced with serial dilutions of either ionomycin or staurosporine in MEM+10% FBS. Medium only served as control. The plate was incubated for an additional 5 hours. A 1 mM solution of Gly-Phe-AFC was made in MEM and added to the wells in a 1/10th volume. Resulting fluorescence was measured using a CYTOFLUOR® II. Caspase-GIo™ 3/7 reagent was then added and luminescence measure using a BMG FLUOstar Optima.

ACHN cells = experiment: Live cell protease retention multiplexed with caspase 3/7 activity, ACHN; conditions: serial dilutions, 5 hours
Procedure: as §5

In the case of NCC(=O)N[C@@H](Cc1ccccc1)C(=O)Nc1ccc2c(c1)Oc1cc(NC(=O)[C@H](Cc3ccccc3)NC(=O)CN)ccc1C21OC(=O)c2ccccc21 [(Gly-Phe)2 R110, (Gly-Phe)2-R110], the Retention (HL-60 or Jurkat [1]) is reported as “None”, the Release (HL-60 or Jurkat [2]) is reported as “None” and the “Suitability as live cell protease retention substrate” value (Jurkat cells) is reported as “apparently unable to effectively traverse the cell membrane or was not effectively cleaved by the candidate protease”.

In the case of CC(C)CC(NC(=O)OCc1ccccc1)C(=O)NC(CC(C)C)C(=O)NC(C(=O)NC(Cc1ccc(O)cc1)C(=O)Nc1ccc2nc(C3=NC(C(=O)O)CS3)sc2c1)C(C)C (stereo not drawn) [Z-Leu-Leu-Val-Tyr-Aluc, Z-Leu-Leu-Val-Tyr-aminoluciferin] (Cbz-LLVY-X1; configuration not given here), the Retention (HL-60 or Jurkat [1]) is reported as “None”, the Release (HL-60 or Jurkat [2]) is reported as “++” and the “Performance as protease release substrate” value (HL-60 cells) is reported as “performed less optimally than the AAF-aminoluciferin sequence”.

In the case of CN[C@@H]1C[C@H]2O[C@@](C)([C@@H]1OC)n1c3ccccc3c3c4c(c5c6ccccc6n2c5c31)C(=O)NC4 [staurosporine], the “Cytotoxicity profile (live cell fluorescence and caspase 3/7 activity)” value (SK-MEL-28 cells) is reported as “caspase activation (and therefore apoptosis induction) is evident” and the “Cytotoxicity profile (live cell fluorescence and caspase 3/7 activity)” value (ACHN cells) is reported as “apoptotic profile”.
